Data published in article PMC12295306, “Gut Microbial Postbiotics as Potential Therapeutics for Lymphoma: Proteomics Insights of the Synergistic Effects of Nisin and Urolithin B Against Human Lymphoma Cells” (International Journal of Molecular Sciences, 2025).
One block for each compound: values may come before it.

Legend:
[1] = test system: HKB-11 human lymphoma cells; test: Alamar Blue antiproliferative assay, HKB-11; type: cell-based; conditions: HKB-11, 72 h, single postbiotics, GraphPad Prism nonlinear regression, read-out: IC50 (concentration required to inhibit 50% of cell growth)
Description: The cell viability of the HKB-11, Hs 313.T, and HS-5 cells after treatment with different concentrations of the seven different postbiotics, including SCFA salts (magnesium acetate, sodium propionate, and sodium butyrate), UA and UB, purine nucleoside (inosine), and bacteriocin (N), was determined using the Alamar Blue assay as per the method described earlier. Briefly, 100 μL of cells was cultured in 96-well plates at a 3 × 10^5 cells/mL seeding density. After 24 h, the cells were treated with 16,000 µM of each postbiotic except for the urolithins, which were applied at 500 µM using a 1:2 serial dilution across a 10-point dose–response curve, followed by a 72 h incubation. A positive control using doxorubicin was prepared at a concentration of 4 μM, and an untreated control with 0.1% DMSO was added to every plate. At the end of the incubation period, the culture media were removed, and 100 μL of a 0.1 mg/mL Alamar Blue solution (resazurin, prepared as a stock solution at 1 mg/mL in freshly made PBS, followed by a 1:10 dilution with serum-free media) was added to each well. The fluorescence levels were assessed using a microplate spectrophotometer (BMG CLARIOstar, Mornington, VIC, Australia) with an excitation wavelength of 555 nm and emission measurement at 595 nm. The compounds were tested in triplicate, with the untreated control taken as 100% cell viability.
Data were collected and managed using MS Office Excel and GraphPad Prism for statistical analyses and visualisation. Data collection and analyses were carried out in triplicate, and the outcomes were presented as the mean ± standard deviation. Statistical significance between the mean values was determined at p ≤ 0.05 employing a two-way ANOVA. Tukey and Dunnett’s tests were utilised within GraphPad Prism software to perform nonlinear regression and multiple comparisons. Furthermore, GraphPad Prism software computed the IC50 value (representing the drug concentration required to achieve a 50% cell growth inhibition). The experimental groups in the proteomics study were compared statistically using unpaired t-tests, assuming equal variances. Candidate proteins were selected based on an absolute log2 fold change ≥ 0.58 and a Q-value ≤ 0.05. Enrichment analysis was subsequently conducted using Ingenuity Pathway Analysis (IPA), applying a significance threshold of adjusted Q ≤ 0.05 to identify functionally enriched pathways, focusing on those with an absolute z-score of ≥1.

HKB-11 lymphoma cells = test: Label-free bottom-up LC-MS proteomics, differentially expressed proteins; type: cell-based, human
Description: The HKB-11 lymphoma cells were placed in 6-well plates at a density of 3.0 × 10^6 cells/well and incubated overnight at 37 °C in 5% CO2. […] Treatments were performed in triplicate and incubated for 24 h under the same conditions. Following incubation, each flask of cells was subjected to a 0.25% w/v trypsin treatment for 4 min at 37 °C, and the cell culture medium was collected. Additionally, an equal volume of DMEM F-12 medium (containing 10% FBS) was added before mixing with the previously collected media to neutralise the trypsin. The cells were spun in a centrifuge at 500× g for 5 min at RT. The cell pellets were washed twice with ice-cold PBS and spun again at 500× g for 5 min. These cell pellets were then suspended in a lysis buffer that included 1 μL of universal nuclease (Easypep Mini Kit) (Thermo Fisher Scientific, Sydney, NSW, Australia) and supplemented with Halt™ Protease and Phosphatase Inhibitor Cocktail in a 1:100 ratio (Thermo Fisher Scientific, Sydney, NSW, Australia). The cells were gently pipetted 10–15 times to reduce the sample’s viscosity and then placed on ice for 20 min. The lysate was centrifuged at 14,000 rpm for 20 min at 4 °C, and the resulting liquid was collected.
The Pierce™ Rapid Gold BCA Protein Assay Kit (#A53226, Thermo Fisher Scientific, Sydney, NSW, Australia) was used to determine the protein concentration of the cell lysate in triplicate, using a bovine serum albumin (BSA) standard, following the manufacturer’s protocol. In brief, 1 μL of each sample replicate was diluted 1:20 in Milli-Q water, along with 20 μL of each standard, and then placed in a 96-well plate with 200 μL of working reagent in each well. Samples were diluted to a concentration within the 20–2000 μg/mL working range. The plate was thoroughly mixed on a plate shaker for 30 s and incubated at RT for 5 min, and then the absorbance was measured within 20 min at 480 nm using a microplate spectrophotometer (BMG CLARIOstar, Melbourne, VIC, Australia). The blank absorbance was subtracted from all other readings of standards and samples, and the sample concentration was determined using the established BSA standard calibration curve. The samples were then stored at −80 °C for further analysis.
The protein samples (100 μg) were subjected to chemical and enzymatic sample processing using the EasyPep™ Mini MS Sample Prep Kit following the manufacturer’s instructions (Thermo Fisher Scientific, Sydney, NSW, Australia) and as reported in the literature. Briefly, the sample volume was adjusted to 100 μL using a lysis buffer in a microcentrifuge tube. Subsequently, the reduction and alkylation solutions (50 μL each) were introduced, gently mixed, and incubated at 95 °C with a heat block for 10 min. The samples were allowed to cool to RT, after which 50 μL of the reconstituted trypsin/lys-C protease mixture was added to each sample and incubated with shaking at 37 °C for 3 h. Following incubation, 50 μL of a digestion stop solution was gently mixed into the samples. Peptide clean-up columns were used to remove both hydrophilic and hydrophobic impurities. The resulting clean peptide samples were dehydrated using a vacuum centrifuge and reconstituted in 100 μL of a 0.1% formic acid solution in water for LC–MS analysis. Subsequently, these samples were carefully transferred to maximum recovery sample vials (Waters Corp., Milford, MA, USA).
Label-free, bottom-up proteomic quantification was performed using a micro high-performance liquid chromatography system (Waters M-Class) coupled with a SCIEX™ TripleTOF® 6600 quadrupole time-of-flight mass spectrometer (SCIEX, Framingham, MA, USA), operated in positive electrospray ionisation mode (ESI+). […]

[2] = HKB-11, N 3200 μM, 24 h, vs untreated control, Q ≤ 0.05
[3] = HKB-11, UB 300 μM, 24 h, vs untreated control, Q ≤ 0.05

IC50 [1]: 1470 µM
Compound: Nisin (ITSISLCTPGCKTGALMGCNMKTATCHCSIHVSK; Lantibiotic nisin-A; UniProt P13068 24-57, looked up) [34-amino-acid lantibiotic peptide (bacteriocin) produced by Lactococcus lactis; purchased]
Log2FC CDK4 (Cyclin-dependent kinase 4) (HKB-11 lymphoma cells; [2]): −1.26
Log2FC CTNNA1 (Catenin alpha-1) (HKB-11 lymphoma cells; [2]): −0.97
Log2FC HDAC1 (Histone deacetylase 1) (HKB-11 lymphoma cells; [2]): −0.67
Log2FC LARP1 (La-related protein 1) (HKB-11 lymphoma cells; [2]): −1.27
Log2FC MAPK14 (Mitogen-activated protein kinase 14) (HKB-11 lymphoma cells; [2]): −0.80
Log2FC NUP62 (Nuclear pore glycoprotein p62) (HKB-11 lymphoma cells; [2]): −0.60
Log2FC POLR2E (DNA-directed RNA polymerases I, II, and III subunit RPABC1) (HKB-11 lymphoma cells; [2]): −0.62
Log2FC POLR2G (DNA-directed RNA Polymerase II subunit RPB7) (HKB-11 lymphoma cells; [2]): −0.63
Log2FC POLR2H (DNA-directed RNA polymerases I, II, and III subunit RPABC3) (HKB-11 lymphoma cells; [2]): −0.59
Log2FC PPP1R14B (Protein phosphatase 1 regulatory subunit 14B) (HKB-11 lymphoma cells; [2]): −0.93
Log2FC PRC1 (Protein regulator of cytokinesis 1) (HKB-11 lymphoma cells; [2]): −0.72
Log2FC RFC1 (Replication factor C subunit 1) (HKB-11 lymphoma cells; [2]): −0.85
Log2FC RFC2 (Replication factor C subunit 2) (HKB-11 lymphoma cells; [2]): −0.59
Log2FC SRPK2 (SRSF protein kinase 2) (HKB-11 lymphoma cells; [2]): −0.70
Log2FC TYMS (Thymidylate synthase) (HKB-11 lymphoma cells; [2]): −1.54
Log2FC PCNA (HKB-11 lymphoma cells; HKB-11, N treatment (3200 µM), 24 h, vs untreated control): −0.63
Log2FC PLPBP (Pyridoxal phosphate homeostasis protein) (HKB-11 lymphoma cells; HKB-11, Nisin_3.2 / Control, Qvalue 0.00903294): 0.58
Log2FC THOC3 (THO complex subunit 3) (HKB-11 lymphoma cells; HKB-11, Nisin_3.2 / Control, Qvalue 0.0139626): -0.58
Log2FC MAZ (Myc-associated zinc finger protein) (HKB-11 lymphoma cells; HKB-11, Nisin_3.2 / Control, Qvalue 0.0377318): -0.58
Log2FC TXNDC9 (Thioredoxin domain-containing protein 9) (HKB-11 lymphoma cells; HKB-11, Nisin_3.2 / Control, Qvalue 0.0383948): -0.58

IC50 [1]: 87.6 µM
Compound: O=c1oc2cc(O)ccc2c2ccccc12 [UB, Urolithin B]
Log2FC APOC3 (Apolipoprotein C-III) (HKB-11 lymphoma cells; [3]): 2.04
Log2FC C4BPA (C4b-binding protein alpha chain) (HKB-11 lymphoma cells; [3]): 4.39
Log2FC CLEC11A (C-type lectin domain family 11 member A) (HKB-11 lymphoma cells; [3]): 3.06
Log2FC COX6C (Cytochrome c oxidase subunit 6C) (HKB-11 lymphoma cells; [3]): 2.07
Log2FC COX7C (Cytochrome c oxidase subunit 7C, mitochondrial) (HKB-11 lymphoma cells; [3]): 2.08
Log2FC FGB (Fibrinogen beta chain) (HKB-11 lymphoma cells; [3]): 2.14
Log2FC GSN (Gelsolin) (HKB-11 lymphoma cells; [3]): 2.26
Log2FC HBD (Haemoglobin subunit delta; Haemoglobin subunit beta) (HKB-11 lymphoma cells; [3]): 5.94
Log2FC HBE1 (Haemoglobin subunit epsilon; gam1; gamma-2) (HKB-11 lymphoma cells; [3]): 5.63
Log2FC ITIH2 (Inter-alpha-trypsin inhibitor heavy chain H2) (HKB-11 lymphoma cells; [3]): 2.76
Log2FC MAD2L1 (Mitotic spindle assembly checkpoint protein MAD2A) (HKB-11 lymphoma cells; [3]): −1.45
Log2FC MT-CO2 (Cytochrome c oxidase subunit 2) (HKB-11 lymphoma cells; [3]): 2.34
Log2FC MT-ND4 (NADH-ubiquinone oxidoreductase chain 4) (HKB-11 lymphoma cells; [3]): 2.24
Log2FC NDUFA11 (NADH dehydrogenase [ubiquinone] 1 alpha subcomplex subunit 11) (HKB-11 lymphoma cells; [3]): 2.18
Log2FC PCNA (Proliferating cell nuclear antigen) (HKB-11 lymphoma cells; [3]): −0.63
Log2FC PSME3 (Proteasome activator complex subunit 3) (HKB-11 lymphoma cells; [3]): −0.59
Log2FC SAMM50 (Sorting and assembly machinery component 50 homolog) (HKB-11 lymphoma cells; [3]): 2.01
Log2FC UBE2E1 (Ubiquitin-conjugating enzyme E2 E1; E2 E3; E2 E2) (HKB-11 lymphoma cells; [3]): −1.69
Log2FC UBE2S (Ubiquitin-conjugating enzyme E2 S) (HKB-11 lymphoma cells; [3]): −1.21
